Measurements: patent US20160158200A1, “Combinations of Hepatitis C Virus Inhibitors” (priority 2013, published 2016)
Where two headings read alike, the source gives them in different places.

Tests used:
[1] = test system: HCV genotype-1a variant with glutamine 30 changed to glutamate in the NS5A protein; conditions: cited from earlier work
[2] = test system: HCV genotype-1a variant with glutamine 30 changed to glutamate in the NS5A protein; type: cell-based; conditions: test compound titrated with BMS-790052 fixed at 200 nM; genotype 1a Q30E replicon
In short: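 Synergy was assessed by combining several fixed amounts of an NS5A-targeting compound with a titration of the second compound of interest.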

[3] = test system: HCV genotype 1a L31V variant with leucine 31 changed to valine in the NS5A protein; experiment: microbe, parasite or virus in culture; type: cell-based; conditions: for EC50: Hepatitis C virus; for Fold-Synergistic G-1a (L31V): genotype 1a L31V replicon, test compound titrated with compound N47 fixed at 200 nM versus singly
[4] = test system: HCV genotype 1a Y93H variant with tyrosine 93 changed to histidine in the NS5A protein; experiment: microbe, parasite or virus in culture; type: cell-based; conditions: for EC50: Hepatitis C virus; for Fold-Synergistic G-1a (Y93H): genotype 1a Y93H replicon, test compound titrated with compound N47 fixed at 200 nM versus singly
In short: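 In an HCV genotype 1a replicon cell-based assay carrying the NS5A Y93H substitution, BMS-790052 was tested alone and in combination with a fixed amount of a second test compound. The combinations were examined for synergistic activity.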

[5] = compound alone, genotype 1a Q30E replicon, read-out: EC50, titrated singly
[6] = read-out: EC50, titrated singly
[7] = read-out: EC50 in combination with compound N47

Compound: CC(C)CC(=O)N[C@H](c1ncc(-c2ccc(-c3ccc(-c4cnc([C@@H](NC(=O)CC(C)C)C(C)C)[nH]4)cc3)cc2)[nH]1)C(C)C [Compound P-55]
- synergistic inhibitory effect with the combination ([1]; P-55 titrated with BMS-790052 fixed at 200 nM): > 100 fold
- EC50 [1, 5]: > 200 nM
- EC50 ([1]; fixed BMS-790052 at 200 nM, genotype 1a Q30E, read-out: EC50 of P-55 in the presence of BMS-790052): ~2 nM
- Fold-Synergistic 1a (Q30E) [2]: >100 fold

Compound: COC(=O)N[C@H](C(=O)N1CCC[C@H]1c1nc(-c2ccc(-c3ccc(-c4c[nH]c([C@@H]5CCCN5C(=O)[C@@H](NC(=O)OC)C(C)C)n4)cc3)cc2)c[nH]1)C(C)C [BMS-790052, reference compound]
- reciprocal synergistic inhibitory effect for the combination ([1]; BMS-790052 titrated with P-55 fixed at 200 nM): ~100 fold
- EC50 [1, 5]: ~200 nM
- EC50 ([1]; fixed P-55 at 200 nM, genotype 1a Q30E, read-out: EC50 of BMS-790052 in the presence of P-55): ~2 nM
- EC50 [3, 6]: ~56 nM
- EC50 [3, 7]: < 0.5 nM
- synergistic inhibitory effect with the combination ([3]; titrated with 200 nM compound N47, genotype 1a L31V): > 100 fold
- EC50 [4, 6]: ~69 nM
- EC50 [4, 7]: < 0.5 nM
- synergistic inhibitory effect for the combination ([4]; titrated with 200 nM compound N47, genotype 1a Y93H): > 100 fold

Compound: COC(=O)N[C@H](C(=O)N1[C@@H]2C[C@@H]2C[C@H]1c1cnc(-c2ccc(C#Cc3ccc(-c4ncc([C@@H]5C[C@H]6C[C@H]6N5C(=O)[C@@H](NC(=O)OC)C(C)C)[nH]4)cc3)cc2)[nH]1)C(C)C
- Fold-Synergistic G-1a (L31V) [3]: <10 fold
- Fold-Synergistic G-1a (Y93H) [4]: >10 fold

Compound: CC(=O)N1CCC[C@H]1C(=O)Nc1ccc(-c2nc(-c3ccc(NC(=O)[C@@H]4C=CCN4C(=O)Cc4ccccc4)cc3)cs2)cc1
- Fold-Synergistic G-1a (L31V) [3]: <10 fold
- Fold-Synergistic G-1a (Y93H) [4]: <10 fold

Compound: CN(C)[C@@H](C(=O)N1CCC[C@H]1c1nc2ccc(-c3ncc([C@@H]4CCCN4C(=O)[C@@H](c4ccccc4)N(C)C)o3)cc2[nH]1)c1ccccc1
- Fold-Synergistic G-1a (L31V) [3]: <10 fold
- Fold-Synergistic G-1a (Y93H) [4]: <10 fold

Compound: COC(=O)N[C@H](C(=O)N1[C@@H](C)CC[C@H]1c1ncc(-c2ccc3c(c2)CCc2cc(-c4cnc([C@@H]5CC[C@H](C)N5C(=O)[C@@H](NC(=O)OC)C(C)C)[nH]4)ccc2-3)[nH]1)C(C)C
- Fold-Synergistic G-1a (L31V) [3]: >100 fold
- Fold-Synergistic G-1a (Y93H) [4]: >100 fold

Compound: COC(=O)N[C@H](C(=O)N1CCCC1c1nc2cc(-c3ccc4cc(-c5ccc(-c6cnc([C@@H]7CCCN7C(=O)[C@@H](NC(=O)OC)C(C)C)[nH]6)cc5)ccc4c3)ccc2[nH]1)C(C)C (some centres unmarked)
- Fold-Synergistic G-1a (L31V) [3]: >10 fold
- Fold-Synergistic G-1a (Y93H) [4]: >10 fold

Compound: CN(C)[C@@H](C(=O)N1CCC[C@H]1c1ncc(-c2ccc(-c3ccc(-c4ccc(-c5cnc([C@@H]6CCCN6C(=O)[C@@H](c6ccccc6)N(C)C)[nH]5)cc4)cc3)cc2)[nH]1)c1ccccc1
- Fold-Synergistic G-1a (L31V) [3]: <10 fold
- Fold-Synergistic G-1a (Y93H) [4]: <10 fold

Compound: COC(=O)N[C@H](C(=O)N1[C@@H]2C[C@@H]2C[C@H]1c1ncc(-c2ccc(-c3ccc(-c4ccc(-c5cnc([C@@H]6C[C@H]7C[C@H]7N6C(=O)[C@@H](NC(=O)OC)C(C)C)[nH]5)cc4)c4[nH]ccc34)cc2)[nH]1)C(C)C
- Fold-Synergistic G-1a (L31V) [3]: >10 fold
- Fold-Synergistic G-1a (Y93H) [4]: >10 fold

Compound: O=C1[C@@H]2CCCN2C(=O)C(c2ccccc2)N1c1ccc(/C=C/c2ccc(N3C(=O)[C@@H]4CCCN4C(=O)C3c3ccccc3)cc2)cc1 (some centres unmarked)
- Fold-Synergistic G-1a (L31V) [3]: <10 fold
- Fold-Synergistic G-1a (Y93H) [4]: <10 fold

Compound: COC(=O)N[C@H](C(=O)N1C[C@@H]2C[C@@H]2[C@H]1c1ncc(-c2ccc(-c3ccc(-c4cnc([C@@H]5[C@H]6C[C@H]6CN5C(=O)[C@@H](NC(=O)OC)C(C)C)[nH]4)cc3)cc2)[nH]1)C(C)C
- Fold-Synergistic G-1a (L31V) [3]: >100 fold
- Fold-Synergistic G-1a (Y93H) [4]: >100 fold

Compound: COC(=O)N[C@H](C(=O)N1[C@@H](C)CC[C@H]1c1ncc(-c2ccc(-c3ccc4cc(-c5cnc([C@@H]6CC[C@H](C)N6C(=O)[C@@H](NC(=O)OC)C6CCOCC6)[nH]5)ccc4c3)cc2)[nH]1)C1CCOCC1
- Fold-Synergistic G-1a (L31V) [3]: <10 fold
- Fold-Synergistic G-1a (Y93H) [4]: >10 fold

Compound: COC(=O)N[C@H](C(=O)N1CCC[C@H]1c1nc(-c2ccc(-c3ccc4c(c3)CCCCc3[nH]c([C@@H]5CCCN5C(=O)[C@@H](NC(=O)OC)C(C)C)nc3-4)cc2)c[nH]1)C(C)C
- Fold-Synergistic G-1a (L31V) [3]: >100 fold
- Fold-Synergistic G-1a (Y93H) [4]: >100 fold
